The target of assay [1] is Carbonic anhydrase 9 (Homo sapiens, UniProt Q16790). The assay is described as follows: Inhibition of human carbonic anhydrase 9 by stopped flow CO2 hydrase assay method.
For assay [2], the target named is Carbonic anhydrase 1 (Homo sapiens, UniProt P00915). The assay is described as follows: Inhibition of human carbonic anhydrase 1 by stopped flow CO2 hydrase assay method.
Assay [3] has as its target Carbonic anhydrase 12 (Homo sapiens, UniProt O43570). Kind of assay: Inhibition of human carbonic anhydrase 12 by stopped flow CO2 hydrase assay method.

Here are results for 23 molecules from ChEMBL document CHEMBL3352400, “4-Functionalized 1,3-diarylpyrazoles bearing 6-aminosulfonylbenzothiazole moiety as potent inhibitors of carbonic anhydrase isoforms hCA I, II, IX and XII” (Bioorg Med Chem, 2014).

In general, Ki refers to a dissociation constant, usually derived from enzyme kinetics or from competition with a known ligand.

Sequence of Carbonic anhydrase 1 (P00915 whole entry): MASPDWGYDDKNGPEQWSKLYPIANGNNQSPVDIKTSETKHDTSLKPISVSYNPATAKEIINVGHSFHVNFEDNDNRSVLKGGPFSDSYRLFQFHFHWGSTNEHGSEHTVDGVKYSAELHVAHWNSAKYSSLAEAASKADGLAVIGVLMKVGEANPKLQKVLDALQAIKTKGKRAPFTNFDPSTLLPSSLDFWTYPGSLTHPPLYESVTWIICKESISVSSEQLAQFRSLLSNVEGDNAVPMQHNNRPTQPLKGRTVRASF
Sequence of Carbonic anhydrase 12 (O43570 whole entry): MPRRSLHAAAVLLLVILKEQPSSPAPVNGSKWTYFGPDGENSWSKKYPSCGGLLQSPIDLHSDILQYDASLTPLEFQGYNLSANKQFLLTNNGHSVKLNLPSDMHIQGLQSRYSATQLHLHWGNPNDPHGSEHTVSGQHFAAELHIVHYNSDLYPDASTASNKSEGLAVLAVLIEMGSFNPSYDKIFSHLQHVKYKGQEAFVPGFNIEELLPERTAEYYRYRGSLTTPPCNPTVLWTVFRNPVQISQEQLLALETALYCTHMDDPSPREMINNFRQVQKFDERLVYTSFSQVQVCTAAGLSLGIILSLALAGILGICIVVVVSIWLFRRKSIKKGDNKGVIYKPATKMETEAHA

As to `N#Cc1cn(-c2nc3ccc(S(N)(=O)=O)cc3s2)nc1-c1ccc(F)cc1`, affinity in assay [1] was put at a Ki of 739 nM.

For the molecule `Cc1ccc(-c2nn(-c3nc4ccc(S(N)(=O)=O)cc4s3)cc2C#N)cc1`, the results for the Ki in assay [1] and in assay [2] were 186 nM and > 50000 nM, respectively.

With `COc1ccc(-c2nn(-c3nc4ccc(S(N)(=O)=O)cc4s3)cc2/C=N/O)cc1`, the Ki in assay [1] was 91.6 nM; in assay [2], > 50000 nM.

`NS(=O)(=O)c1ccc2nc(-n3cc(C(=O)O)c(-c4ccc([N+](=O)[O-])cc4)n3)sc2c1` yielded a Ki in assay [1] of 60.4 nM.

Consider `NS(=O)(=O)c1ccc2nc(-n3cc(C(=O)O)c(-c4ccccc4)n3)sc2c1`, for which the Ki in assay [1] was 752 nM.

Regarding `NS(=O)(=O)c1ccc2nc(-n3cc(C(=O)O)c(-c4ccc(Cl)cc4)n3)sc2c1`, in assay [1], the inhibitory constant (Ki) came to 2.8 nM.

As for `NS(=O)(=O)c1ccc2nc(-n3cc(C=O)c(-c4ccc(F)cc4)n3)sc2c1`, the Ki in assay [3] is > 10000 nM.

In assay [1], `COc1ccc(-c2nn(-c3nc4ccc(S(N)(=O)=O)cc4s3)cc2C=O)cc1` registered an inhibition constant (Ki) of 229 nM.

In turn, `Cc1ccc(-c2nn(-c3nc4ccc(S(N)(=O)=O)cc4s3)cc2C(=O)O)cc1` had a Ki in assay [1] of 109 nM.

Molecule `NS(=O)(=O)c1ccc2nc(-n3cc(/C=N/O)c(-c4ccc(Cl)cc4)n3)sc2c1` returned a Ki in assay [1] of 152 nM.

Regarding `NS(=O)(=O)c1ccc2nc(-n3cc(C=O)c(-c4ccc(Cl)cc4)n3)sc2c1`, in assay [1], the inhibition constant Ki stood at 1690 nM.

In assay [1], `NS(=O)(=O)c1ccc2nc(-n3cc(C=O)c(-c4ccccc4)n3)sc2c1` had a Ki of 1750 nM.

Regarding `NS(=O)(=O)c1ccc2nc(-n3cc(C(=O)O)c(-c4ccc(F)cc4)n3)sc2c1`, in assay [1], the inhibitory constant (Ki) worked out at 62.4 nM.

In assay [1], `NS(=O)(=O)c1ccc2nc(-n3cc(C=O)c(-c4ccc([N+](=O)[O-])cc4)n3)sc2c1` came in with an inhibition constant Ki of 2110 nM.

`NS(=O)(=O)c1ccc2nc(-n3cc(/C=N/O)c(-c4ccccc4)n3)sc2c1` displayed an inhibition constant (Ki) in assay [1] of 114 nM.

For `COc1ccc(-c2nn(-c3nc4ccc(S(N)(=O)=O)cc4s3)cc2C(=O)O)cc1`, in assay [1], the Ki came out at 842 nM.

For `N#Cc1cn(-c2nc3ccc(S(N)(=O)=O)cc3s2)nc1-c1ccc(Cl)cc1`, the inhibitory constant (Ki) is 224 nM in assay [1] and > 50000 nM in assay [2].

In assay [1], `Cc1ccc(-c2nn(-c3nc4ccc(S(N)(=O)=O)cc4s3)cc2C=O)cc1` registered an inhibition constant (Ki) of 699 nM.

On to `COc1ccc(-c2nn(-c3nc4ccc(S(N)(=O)=O)cc4s3)cc2C#N)cc1`, for which the Ki is 111 nM in assay [1] and > 50000 nM in assay [2].

On to `N#Cc1cn(-c2nc3ccc(S(N)(=O)=O)cc3s2)nc1-c1ccccc1`, for which the Ki in assay [1] was determined as 81.6 nM.

On to `N#Cc1cn(-c2nc3ccc(S(N)(=O)=O)cc3s2)nc1-c1ccc([N+](=O)[O-])cc1`, for which the Ki in assay [1] was 854 nM; in assay [2], > 50000 nM.

In turn, `Cc1ccc(-c2nn(-c3nc4ccc(S(N)(=O)=O)cc4s3)cc2/C=N/O)cc1` came in with an inhibition constant Ki in assay [1] of 134 nM.

In the case of `NS(=O)(=O)c1ccc2nc(-n3cc(/C=N/O)c(-c4ccc(F)cc4)n3)sc2c1`, the affinity in assay [1] corresponds to a Ki of 224 nM.
